For 17 compounds, T/C results are on record in PubChem BioAssay AID328 (DTP/NCI, 2004).

“And” between values parts separate entries of the source, which are not always exact repeats. Identical values can stand only once. Inconclusive results and toxic doses are left out.

This test relates to BDF1 mice, P388 leukemia ip, median survival T/C. Briefly: NCI In Vivo Anticancer Drug Screen. Data for tumor model P388 Leukemia (intraperitoneal) in B6D2F1 (BDF1) mice. To be noted: endpoint: median survival time, higher = longer survival. Put shortly: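 Steps: implant the tumour, treat one group with compound and another with vehicle, record survival, then divide treated by control.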

The mark [1] stands for this setting: dose: 6.25 mg/kg/injection, schedule: Q01DX009 (ip), vehicle: saline.
The mark [2] stands for this setting: dose: 12.5 mg/kg/injection, schedule: Q01DX009 (ip), vehicle: saline.
Where [3] appears, read: dose: 25.0 mg/kg/injection, schedule: Q01DX009 (ip), vehicle: saline.
Where [4] appears, read: dose: 50.0 mg/kg/injection, schedule: Q01DX009 (ip), vehicle: saline.
Where [5] appears, read: dose: 100.0 mg/kg/injection, schedule: Q01DX009 (ip), vehicle: Klucel (hydroxypropylcellulose) (HPC).
The mark [6] stands for this setting: dose: 100.0 mg/kg/injection, schedule: Q01DX009 (ip), vehicle: saline with Tween-80.
The mark [7] stands for this setting: dose: 100.0 mg/kg/injection, schedule: Q04DX003 (ip), vehicle: Klucel (hydroxypropylcellulose) (HPC).
Setting [8] is: dose: 100.0 mg/kg/injection, schedule: Q04DX003 (ip), vehicle: saline with Tween-80.
Where [9] appears, read: dose: 200.0 mg/kg/injection, schedule: Q01DX009 (ip), vehicle: Klucel (hydroxypropylcellulose) (HPC).
The mark [10] stands for this setting: dose: 200.0 mg/kg/injection, schedule: Q01DX009 (ip), vehicle: saline with Tween-80.
Setting [11] is: dose: 200.0 mg/kg/injection, schedule: Q04DX003 (ip), vehicle: Klucel (hydroxypropylcellulose) (HPC).
The mark [12] stands for this setting: dose: 200.0 mg/kg/injection, schedule: Q04DX003 (ip), vehicle: saline with Tween-80.
Where [13] appears, read: dose: 400.0 mg/kg/injection, schedule: Q01DX009 (ip), vehicle: Klucel (hydroxypropylcellulose) (HPC).
Setting [14] is: dose: 400.0 mg/kg/injection, schedule: Q01DX009 (ip), vehicle: saline with Tween-80.
[15] abbreviates: dose: 400.0 mg/kg/injection, schedule: Q04DX003 (ip), vehicle: Klucel (hydroxypropylcellulose) (HPC).
[16] abbreviates: dose: 400.0 mg/kg/injection, schedule: Q04DX003 (ip), vehicle: saline with Tween-80.
[17] abbreviates: dose: 50.0 mg/kg/injection, schedule: Q01DX009 (ip), vehicle: saline with Tween-80.

On to `O=P1(NCCCl)OCCCN1CCCl` (centres undefined), for which the T/C by setting is: (dose: 0.8 mg/kg/injection, schedule: Q01DX010 (ip), vehicle: saline) 105 % of control; (dose: 1.5 mg/kg/injection, schedule: Q01DX010 (ip), vehicle: saline) 100 % of control; (dose: 3.0 mg/kg/injection, schedule: Q01DX010 (ip), vehicle: saline) 110 % of control; (dose: 3.12 mg/kg/injection, schedule: Q01DX009 (ip), vehicle: saline) 99 % of control; (dose: 6.0 mg/kg/injection, schedule: Q01DX010 (ip), vehicle: saline) 110 % of control; under setting [1], 107 % of control and 115 % of control. Moreover, the T/C under setting [2] is 173 % of control; the T/C (dose: 12.5 mg/kg/injection, schedule: Q01DX010 (ip), vehicle: saline) is 177 % of control; the T/C under setting [3] is 166 % of control and 196 % of control; the T/C (dose: 25.0 mg/kg/injection, schedule: Q01DX009 (ip), vehicle: water) was 156 % of control; the T/C (dose: 25.0 mg/kg/injection, schedule: Q01DX010 (ip), vehicle: saline) is 216 % of control; the T/C under setting [4] is 121 % of control. Besides, the T/C is, setting by setting: (dose: 50.0 mg/kg/injection, schedule: Q01DX009 (ip), vehicle: water) 241 % of control; (dose: 50.0 mg/kg/injection, schedule: Q01DX010 (ip), vehicle: saline) 200 % of control; (dose: 100.0 mg/kg/injection, schedule: Q01DX009 (ip), vehicle: saline) 105 % of control; (dose: 100.0 mg/kg/injection, schedule: Q01DX010 (ip), vehicle: saline) 300 % of control; (dose: 200.0 mg/kg/injection, schedule: Q01DX009 (ip), vehicle: saline) 87 % of control; (dose: 200.0 mg/kg/injection, schedule: Q01DX009 (ip), vehicle: water) 98 % of control. Under “dose: 200.0 mg/kg/injection, schedule: Q01DX010 (ip), vehicle: saline”, the T/C is 105 % of control.
For the compound `CCNC(=O)OCc1c(COC(=O)NCC)c(-c2ccc(F)cc2)n2c1CCC2`, the T/C (dose: 25.0 mg/kg/injection, schedule: Q01DX009 (ip), vehicle: other) was 98 % of control.
Consider `CSc1ncc2ncn(C3OC(CO)C(O)C3O)c2n1` (centres undefined), for which the T/C runs as follows: (dose: 100.0 mg/kg/injection, schedule: Q01DX001 (ip), vehicle: Klucel (hydroxypropylcellulose) (HPC)) 86 % of control; under setting [5], 110 % of control; under setting [6], 86 % of control; under setting [7], 95 % of control; under setting [8], 95 % of control; (dose: 200.0 mg/kg/injection, schedule: Q01DX001 (ip), vehicle: Klucel (hydroxypropylcellulose) (HPC)) 100 % of control. For the same compound, the T/C is 105 % of control under setting [9]; 95 % of control under setting [10]; 100 % of control under setting [11]; 95 % of control under setting [12]; 109 % of control (dose: 400.0 mg/kg/injection, schedule: Q01DX001 (ip), vehicle: Klucel (hydroxypropylcellulose) (HPC)); 105 % of control under setting [13]. Besides, the T/C by setting is: under setting [14], 86 % of control; under setting [15], 100 % of control; under setting [16], 100 % of control.
As for `O=S(=O)(O)c1ccc(-c2ccccc2)cc1`, the T/C is 95 % of control (dose: 25.0 mg/kg/injection, schedule: Q01DX009 (ip), vehicle: Klucel (hydroxypropylcellulose) (HPC)); 87 % of control (dose: 50.0 mg/kg/injection, schedule: Q01DX009 (ip), vehicle: Klucel (hydroxypropylcellulose) (HPC)); 95 % of control under setting [5]; 88 % of control under setting [7].
For the compound `O=S(=O)(O)c1cc(S(=O)(=O)O)c2cc(N=Nc3ccc(N(CC4CO4)CC4CO4)cc3)ccc2c1` (centres undefined), the T/C by setting is: (dose: 100.0 mg/kg/injection, schedule: Q01DX001 (ip), vehicle: saline) 108 % of control; (dose: 200.0 mg/kg/injection, schedule: Q01DX001 (ip), vehicle: saline) 102 % of control; (dose: 400.0 mg/kg/injection, schedule: Q01DX001 (ip), vehicle: saline) 113 % of control.
Regarding `Cc1ccc(S(=O)(=O)OCC(CO)(COS(=O)(=O)c2ccc(C)cc2)[N+](=O)[O-])cc1`, the T/C is 100 % of control under setting [5]; 113 % of control under setting [7]; 95 % of control under setting [9]; 121 % of control under setting [11]; 121 % of control under setting [15].
Consider `CC(=O)OCC(OC(C)=O)c1cc(/C=N/N(C(C)=O)c2ccccc2)nn1-c1ccccc1` (centres undefined), for which the T/C is, setting by setting: (dose: 25.0 mg/kg/injection, schedule: Q01DX009 (ip), vehicle: saline with Tween-80) 101 % of control; under setting [17], 98 % of control; under setting [6], 96 % of control.
As to `CCOC(=O)C(Cc1ccccc1)P(=O)(OCC)OCC` (centres undefined), the T/C is 109 % of control under setting [6] and 104 % of control under setting [10].
Consider `CCOC(=O)C(=Cc1c[nH]c2ccccc12)C(=O)OCC`, for which the T/C by setting is: (dose: 45.0 mg/kg/injection, schedule: Q04DX003 (ip), vehicle: saline with Tween-80) 109 % of control; (dose: 65.0 mg/kg/injection, schedule: Q04DX003 (ip), vehicle: saline with Tween-80) 113 % of control; under setting [8], 100 % of control and 105 % of control; (dose: 150.0 mg/kg/injection, schedule: Q04DX003 (ip), vehicle: saline with Tween-80) 109 % of control; under setting [12], 100 % of control and 118 % of control; under setting [16], 90 % of control and 109 % of control.
`N=c1cc(-c2ccc(Cl)cc2)ss1`: the T/C by setting is: under setting [4], 117 % of control; (dose: 50.0 mg/kg/injection, schedule: Q04DX003 (ip), vehicle: saline) 97 % of control; (dose: 100.0 mg/kg/injection, schedule: Q04DX003 (ip), vehicle: saline) 105 % of control; (dose: 200.0 mg/kg/injection, schedule: Q04DX003 (ip), vehicle: saline) 108 % of control.
For the compound `CCC1C(=O)NC(=O)C1(C)c1ccccc1` (centres undefined), the T/C under setting [17] is 191 % of control, the T/C under setting [6] is 122 % of control and the T/C under setting [10] is 120 % of control.
Consider `O=C(NCc1cnccn1)Oc1ccc([N+](=O)[O-])cc1`, for which the T/C was 112 % of control under setting [17], 94 % of control under setting [6], 86 % of control under setting [10] and 97 % of control under setting [14].
For the compound `CCN1C(=O)Nc2ccc(Cl)cc2C1(O)c1ccccc1` (centres undefined), the T/C reads like this: under setting [17], 97 % of control; under setting [10], 97 % of control.
Regarding `CC(CC(=O)O)(CC(=O)O)c1ccccc1`, the T/C is 100 % of control under setting [5]; 104 % of control under setting [7]; 95 % of control under setting [9]; 95 % of control under setting [11]; 100 % of control under setting [13]; 90 % of control under setting [15].
On to `O=[N+]([O-])c1ccc(S(=O)(=O)Nc2ccc(-c3ccccc3)cc2)cc1`, for which the T/C (dose: 100.0 mg/kg/injection, schedule: Q04DX003 (ip), vehicle: other) is 96 % of control; the T/C (dose: 200.0 mg/kg/injection, schedule: Q04DX003 (ip), vehicle: other) is 104 % of control; the T/C (dose: 400.0 mg/kg/injection, schedule: Q04DX003 (ip), vehicle: other) was 100 % of control.
`CC[P+](CC)(CC)CCCCI`: the T/C is 120 % of control under setting [1]; 123 % of control under setting [2]; 108 % of control and 120 % of control under setting [3]; 99 % of control under setting [4].
Turning to `[O-][N+](=Nc1cccc(Cl)c1)c1cccc(Cl)c1`, the T/C reads like this: under setting [17], 93 % of control; (dose: 66.0 mg/kg/injection, schedule: Q01DX009 (ip), vehicle: saline with Tween-80) 89 % of control; under setting [6], 93 % of control; (dose: 150.0 mg/kg/injection, schedule: Q01DX009 (ip), vehicle: saline with Tween-80) 90 % of control; under setting [10], 94 % of control.
